Measurements from patent US20250099420A1, “SMALL MOLECULE MODULATORS OF GPR139 COMPLEX” (University of Florida Research Foundation, Incorporated, priority 2022, published 2025).
Where two headings read alike, the source gives them in different places.

Assays:
[1] = biological target: T1, GPR139 (Homo sapiens, UniProt Q6DWJ6); experiment: GPR139 Agonist titration / agonist counterscreen assay (calcium detection, HEK-GPR139 cells); type: cell-based; set-up: expressed in transfected cells; host or cells: HEK Aequorin cells, Maxcyte transient transfection; details: GPR139 Agonist Activity; for Averaged Max % Response (±St. Dev.): activity relative to known control; for EC50: read-out: EC50
T1 sequence (Q6DWJ6 1-353): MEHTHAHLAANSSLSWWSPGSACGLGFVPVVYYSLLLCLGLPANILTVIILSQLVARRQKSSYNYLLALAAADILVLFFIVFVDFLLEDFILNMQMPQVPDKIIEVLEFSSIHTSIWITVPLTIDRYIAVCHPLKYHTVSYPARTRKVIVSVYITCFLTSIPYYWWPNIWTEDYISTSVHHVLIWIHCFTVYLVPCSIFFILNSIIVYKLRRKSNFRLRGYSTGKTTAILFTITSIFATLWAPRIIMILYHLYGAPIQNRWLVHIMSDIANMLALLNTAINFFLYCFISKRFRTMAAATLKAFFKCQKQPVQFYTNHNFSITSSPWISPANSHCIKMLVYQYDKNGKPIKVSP
Protocol: GPR activity was assessed using a calcium detection assay. […] Negative control samples were treated with DMSO. […] Intracellular calcium was measured using Calcium 5.

[2] = system: parental HEK cells; experiment: HEK parental Agonist Counterscreen Assay (non-transfected cells); type: cell-based; details: for Averaged Max % Response (±St. Dev.): activity relative to known control
Text: The high control for the agonist counterscreen was Forskolin not acetylcholine.

[3] = values printed in E-notation without unit
[4] = HEK Agonist Activity section of Table 4 (parental HEK counterscreen)
[5] = HEK Agonist Activity, parental non-transfected HEK cells
[6] = Homo sapiens, HEK293, HEK Agonist Activity section of Table 4 (parental HEK counterscreen)
[7] = Homo sapiens, HEK293, HEK Agonist Activity, parental non-transfected HEK cells

| Compound | Averaged Max % Response (±St. Dev.) [1] | Lipophilic Efficiency (logD) ([1]; based on logD) | Lipophilic Efficiency (logP) ([1]; based on logP) | Hill Slope ([1]; fitted dose-response curve) | Efficiency Ligand ([1]; ligand efficiency) | EC50 [1, 3] | Lipophilic Efficiency (logD) ([2]; HEK Agonist Activity section) | Lipophilic Efficiency (logP) ([2]; HEK Agonist Activity section) | EC50 [2, 4] | Averaged Max % Response (±St. Dev.) ([2]; HEK Agonist Activity section) | Lipophilic Efficiency (logD) ([2]; HEK Agonist Activity) | Lipophilic Efficiency (logP) ([2]; HEK Agonist Activity) | Averaged Max % Response (±St. Dev.) ([2]; HEK Agonist Activity) | EC50 [2, 7] | also measured |
| --- | --- | --- | --- | --- | --- | --- | --- | --- | --- | --- | --- | --- | --- | --- | --- |
| CC1CC(C)CN(C(=O)C2C3C=CC4(CN(Cc5ccccc5Cl)C(=O)C24)O3)C1 (stereo not drawn) [SR-01000583192] | 108.22 ± 25.63% | 4.61 | 4.61 | 0.51 | 0.35 | 48.1 nM | 2.09 | 2.09 | > 15900 nM | 13.45 ± 13.24% | – | – | – | – | – |
| O=C(NCCc1ccc(Cl)cc1)c1ccc(N2CC3CC(C2)c2cccc(=O)n2C3)c(NS(=O)(=O)c2ccc3c(c2)OCCO3)c1 (stereo not drawn) [SR-01000583473] | 116.62 ± 3.81% | 3.89 | 3.71 | 0.26 | 0.23 | 40.1 nM | – | – | – | – | 1.64 | 1.46 | 54.64 ± 8.92% | – | Hill Slope ([2]; HEK Agonist Activity): 0.45; EC50 [2, 5]: 7200 nM |
| O=C(CN1CC(=O)N(Cc2ccc(O)cc2)C(c2ccccc2Cl)C1=O)NCc1ccco1 (stereo not drawn) [SR-01000583711] | 95.83 ± 14.92% | – | – | – | – | – | 1.87 | 1.87 | – | 9.29 ± 2.62% | – | – | – | – | Efficiency Ligand [1]: 0.27; Hill Slope [1]: 0.32; Lipophilic Efficiency (logD) [1]: 3.24; Lipophilic Efficiency (logP) [1]: 3.24; EC50 ([1]; HEK-GPR139 cells): 469 nM; EC50 [2, 6]: > 11100 nM |
| COP(=O)(CN(CCc1ccc(Cl)cc1)C(=O)Nc1ccc(Cl)c(Cl)c1)OC [SR-01000584158] | 123.61 ± 28.77% | 2.25 | 2.25 | 0.47 | 0.37 | 36.6 nM | – | – | – | – | −0.34 | −0.34 | 0.77 ± 6.52% | – | EC50 [2, 5]: > 14100 nM |
| CCn1c(=O)n(CC(=O)NCC2COc3ccccc3O2)c(=O)c2ccccc21 (stereo not drawn) [SR-01000589950] | 90.30 ± 31.36% | 5.98 | 5.98 | 0.72 | 0.36 | 36.4 nM | – | – | – | – | 3.39 | 3.39 | −9.62 ± 21.31% | > 14100 nM | – |
| Nc1ccc2c(C(F)(F)F)cc(=O)oc2c1 [SR-01000597171] | 177.62 ± 11.26% | – | – | – | – | – | 3.35 | 3.35 | 10700 nM | 92.06 ± 10.88% | – | – | – | – | Efficiency Ligand [1]: 0.47; Lipophilic Efficiency (logD) [1]: 3.74; Lipophilic Efficiency (logP) [1]: 3.74; EC50 ([1]; HEK-GPR139 cells): > 4400 nM; Hill Slope ([2]; HEK Agonist Activity section): 2.90 |
| Cc1onc(-c2ccccc2Cl)c1C(=O)NNC(=O)CSc1ccccc1[N+](=O)[O-] [SR-01000633083] | 100.43 ± 4.95% | 4.82 | 4.81 | 0.91 | 0.38 | 6.7 nM | – | – | – | – | 1.49 | 1.48 | 21.09 ± 6.01% | > 14100 nM | – |
| Cc1nn(-c2ccccc2)nc1C(=O)NNC(=O)CSCc1cccc2ccccc12 [SR-01000634249] | 89.30 ± 20.10% | – | – | – | – | – | 1.65 | 1.65 | > 14100 nM | 7.70 ± 7.23% | – | – | – | – | Efficiency Ligand [1]: 0.26; Hill Slope [1]: 0.69; Lipophilic Efficiency (logD) [1]: 2.57; Lipophilic Efficiency (logP) [1]: 2.57; EC50 ([1]; HEK-GPR139 cells): 1700 nM |
| COc1cc(C(=O)NNC(=O)C(C)Oc2ccc(Cl)cc2Cl)cc(OC)c1OC (stereo not drawn) [SR-01000644888] | 113.87 ± 14.45% | – | – | – | – | – | 1.84 | 1.80 | – | 30.23 ± 7.95% | – | – | – | – | Efficiency Ligand [1]: 0.31; Hill Slope [1]: 0.74; Lipophilic Efficiency (logD) [1]: 3.44; Lipophilic Efficiency (logP) [1]: 3.40; EC50 ([1]; HEK-GPR139 cells): 352 nM; EC50 [2, 6]: > 14100 nM |
| COc1ccc(CCNC(=O)c2cccc(-c3ccc(OC)nc3)c2)cc1 [SR-01000652579] | 108.92 ± 9.07% | 3.26 | 3.26 | 0.44 | 0.36 | 93.2 nM | 1.08 | 1.08 | > 14200 nM | 11.17 ± 6.82% | – | – | – | – | – |
| COc1ccc(CCNC(=O)c2cnc(N3CCCC3CO)s2)cc1 (stereo not drawn) [SR-01000652673] | 123.26 ± 12.43% | 5.68 | 5.68 | 0.93 | 0.44 | 11.5 nM | – | – | – | – | 2.61 | 2.61 | 3.95 ± 2.97% | > 13400 nM | – |
| COc1ccc(CCNC(=O)c2ccnc(N3CCN(Cc4ccc5c(c4)OCO5)CC3)c2)cc1 [SR-01000654192] | 115.41 ± 10.16% | 3.51 | 3.38 | 0.89 | 0.28 | 110 nM | 1.42 | 1.29 | > 13300 nM | 14.64 ± 17.11% | – | – | – | – | – |
| COc1ccc(CCNC(=O)c2cncc(-c3csc4ccccc34)c2)cc1 [SR-01000654639] | 99.13 ± 2.27% | 2.51 | 2.51 | 1.05 | 0.34 | 191 nM | 0.64 | 0.64 | > 14000 nM | 1.22 ± 5.69% | – | – | – | – | – |
| COc1ccc(CCCC(=O)c2cccc(-c3ccc(OC)cc3)c2)cc1 [SR-01000655128] | 106.36 ± 3.74% | 3.70 | 3.70 | 0.50 | 0.36 | – | 1.68 | 1.68 | – | 0.74 ± 3.27% | – | – | – | – | EC50 [2, 6]: > 14100 nM |
| COCC(=O)Oc1c(Sc2c(F)c(F)c(F)c(F)c2F)c(C)nn1C(C)(C)C [SR-01000906953] | 95.58 ± 3.98% | 3.16 | 3.16 | 1.02 | 0.36 | 68.1 nM | 1.23 | 1.23 | 5700 nM | 192.43 ± 25.16% | – | – | – | – | Hill Slope ([2]; HEK Agonist Activity section): 9.35 |
| CCOc1ccc(C(=O)NCCn2ccc3ccccc32)cc1OCC [SR-01000907288] | 110.51 ± 12.41% | 5.58 | 5.58 | – | 0.49 | – | – | – | – | – | 1.28 | 1.28 | 14.88 ± 7.51% | > 14100 nM | – |
| COc1ccccc1OCC(=O)NCCc1ccc2c(c1)CCCN2C [SR-01000911654] | 102.69 ± 7.41% | 4.95 | 4.94 | 0.31 | 0.44 | 7.9 nM | – | – | – | – | 1.69 | 1.69 | −5.46 ± 4.05% | > 14100 nM | – |
| O=C(NCCS(=O)(=O)N1CCc2ccccc2C1)C(c1ccccc1)c1ccccc1 [SR-01000911742] | 93.88 ± 11.00% | – | – | – | – | – | 1.49 | 1.49 | – | −12.80 ± 5.17% | – | – | – | – | Efficiency Ligand [1]: 0.25; Hill Slope [1]: 0.32; Lipophilic Efficiency (logD) [1]: 2.28; Lipophilic Efficiency (logP) [1]: 2.28; EC50 ([1]; HEK-GPR139 cells): 2300 nM; EC50 [2, 6]: > 14100 nM |
| COc1ccc(NC(=O)NCC2CC(=O)N(c3ccccc3)C2)cc1 (stereo not drawn) [SR-01000912290] | 103.55 ± 8.13% | 6.11 | 6.11 | 1.13 | 0.44 | 14.3 nM | – | – | – | – | 3.12 | 3.12 | 20.29 ± 5.75% | > 14100 nM | – |
